Test results as given in US20070009986A1, “Compositions for modulating immune cell activity and methods for detection thereof” (priority 2003, published 2007).

System: CD8+CD45RO+ T-cell migration towards and away from HIV-1gp120
Test: Inhibitor profile of T-cell movement towards and away from recombinant X4 gp120 in transmigration assays
Type: cell-based, human
Conditions: for inhibition of migration away from gp120: T-cells including HIV-specific CTL
Method: Transmigration assays: Transmigration assays were performed in a transwell system with a polycarbonate membrane of 6.5-mm diameter with 5 μm pore size (Corning, Corning, N.Y.) as described (Kim et al., 1998, Blood 91:4434-4443; Poznansky et al., 2000, Nat Med 6:543-548). Purified T-cell subpopulations (5×10^4 cells) were added to the upper chamber of each well in a total volume of 150 μl Iscove's modified media. SDF-1α (PeproTech, Rocky Hill, N.J.) or recombinant HIV-1 gp120 (Immunodiagnostics, Woburn, Mass., AIDS Reagent Repository, NIH or RW) was used at concentrations ranging from 2 ng/ml to […] in the lower, upper, or both lower and upper chambers of the transwell to generate a standard “checkerboard” analysis matrix of positive, negative and absent gradients. Recombinant variable loop deletion mutants of HIV-1IIIB gp120 including V1, V1.V2, and V1.V2.V3, were also used in these assays. Transwells were incubated for 3 hours at 37° C., after which cells were collected from the lower chamber and counted.
Specific components of the Gi-protein coupled receptor signaling pathway for SDF-1 can be blocked by a number of different chemical inhibitor (Poznansky et al., 2000, Nat Med 6:543-548; Poznansky et al., 2002, Clin. Invest. 109:1101-1110; Sotsios et al., 1999, J. Immunol. 163:5954-5963; Vlahakis et al. 2001, J. Clin. Invest. 107:207-215). The inhibitor profile for movement of resting T-cell subpopulations towards and away from recombinant X4 gp120 in transmigration assays had been established.

Compound	inhibition of T-cell migration towards and away from HIV-1gp120 (CD8+CD45RO+ T-cells incubated with inhibitor prior to transmigration assay, FIG. 2)	inhibition of migration away from gp120
pertussis toxin	significantly inhibited	inhibited
Nc1ncnc2c1nc(Br)n2[C@@H]1O[C@@H]2COP(=O)(O)O[C@H]2[C@H]1O [8-Br-cAMP]		inhibited
